Test results published in patent US20230023559A1, “ARYLMETHYLENE HETEROCYCLIC COMPOUNDS AS KV1.3 POTASSIUM SHAKER CHANNEL BLOCKERS” (D. E. Shaw Research, LLC, priority 2019, published 2023).

Legend:
Kv1.3 potassium channel = biological target: T1, Kv1.3 potassium channel (Homo sapiens, UniProt P22001); experiment: Kv1.3 potassium channel blocker activity, automated whole-cell patch clamp (Patchliner); assay type: cell-based; details: CHO-K1 cells stably expressing Kv1.3; whole cell current inhibition; read-out: Kv1.3_IC50
T1 construct: expressed in transfected cells
T1 sequence (P22001 whole entry): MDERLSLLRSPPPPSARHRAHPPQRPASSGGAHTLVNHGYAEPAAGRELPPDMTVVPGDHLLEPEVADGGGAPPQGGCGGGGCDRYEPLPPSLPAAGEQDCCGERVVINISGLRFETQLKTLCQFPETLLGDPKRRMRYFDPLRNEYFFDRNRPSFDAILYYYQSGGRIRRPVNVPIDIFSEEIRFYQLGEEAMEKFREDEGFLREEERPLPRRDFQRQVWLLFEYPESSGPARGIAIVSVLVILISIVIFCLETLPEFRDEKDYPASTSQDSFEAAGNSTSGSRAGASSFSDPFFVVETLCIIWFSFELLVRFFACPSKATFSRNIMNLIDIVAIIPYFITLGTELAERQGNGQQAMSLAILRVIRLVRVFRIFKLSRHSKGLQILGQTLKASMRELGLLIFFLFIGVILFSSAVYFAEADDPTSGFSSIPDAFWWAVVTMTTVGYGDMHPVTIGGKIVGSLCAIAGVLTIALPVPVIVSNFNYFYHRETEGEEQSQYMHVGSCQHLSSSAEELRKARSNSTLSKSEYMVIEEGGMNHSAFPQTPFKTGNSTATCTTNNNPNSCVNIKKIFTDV
Summary of the method: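 Peak-current block was recorded on stable Kv1.3 CHO-K1 cells by automated patch clamp, stepping from a −90 mV holding potential to +40 mV for 100 ms at 0.1 Hz with 10 s breaks between trains. Online P/4 leak subtraction, 10 kHz sampling; compound exposure under 10 s per train.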

hERG channel = hERG channel (Homo sapiens, UniProt Q12809); experiment: hERG electrophysiology, automated whole-cell patch clamp (Patchliner)
hERG channel, sequence (Q12809 whole entry): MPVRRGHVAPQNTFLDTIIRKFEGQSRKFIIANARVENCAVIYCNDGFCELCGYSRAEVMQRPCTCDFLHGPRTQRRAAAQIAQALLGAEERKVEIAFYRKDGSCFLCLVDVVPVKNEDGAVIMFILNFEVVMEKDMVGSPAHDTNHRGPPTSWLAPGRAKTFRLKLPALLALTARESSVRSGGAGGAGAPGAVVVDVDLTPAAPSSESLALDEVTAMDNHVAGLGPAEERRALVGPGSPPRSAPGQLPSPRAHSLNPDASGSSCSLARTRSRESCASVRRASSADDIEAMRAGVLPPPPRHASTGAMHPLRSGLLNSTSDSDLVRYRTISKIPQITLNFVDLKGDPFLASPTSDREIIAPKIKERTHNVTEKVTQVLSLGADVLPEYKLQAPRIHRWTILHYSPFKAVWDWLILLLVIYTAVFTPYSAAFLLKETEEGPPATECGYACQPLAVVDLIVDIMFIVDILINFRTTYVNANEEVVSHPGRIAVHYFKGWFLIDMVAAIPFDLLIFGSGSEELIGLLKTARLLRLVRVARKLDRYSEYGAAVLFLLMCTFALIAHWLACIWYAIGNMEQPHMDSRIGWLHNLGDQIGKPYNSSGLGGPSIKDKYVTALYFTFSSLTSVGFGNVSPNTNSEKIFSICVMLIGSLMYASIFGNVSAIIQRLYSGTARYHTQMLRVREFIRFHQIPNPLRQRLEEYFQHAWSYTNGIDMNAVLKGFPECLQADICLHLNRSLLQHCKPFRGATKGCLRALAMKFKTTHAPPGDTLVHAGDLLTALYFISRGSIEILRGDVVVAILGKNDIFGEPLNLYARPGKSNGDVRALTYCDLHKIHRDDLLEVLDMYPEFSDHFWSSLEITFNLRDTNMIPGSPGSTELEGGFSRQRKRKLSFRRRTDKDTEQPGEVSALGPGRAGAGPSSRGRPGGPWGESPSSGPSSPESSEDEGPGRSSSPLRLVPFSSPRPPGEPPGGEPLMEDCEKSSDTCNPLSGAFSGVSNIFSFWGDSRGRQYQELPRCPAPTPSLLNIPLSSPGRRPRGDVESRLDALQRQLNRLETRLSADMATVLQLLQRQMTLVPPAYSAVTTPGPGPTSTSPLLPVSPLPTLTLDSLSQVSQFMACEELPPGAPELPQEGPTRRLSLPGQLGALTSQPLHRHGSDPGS
Procedure: CHO-K1 cells stably expressing hERG were grown in Ham's F-12 Medium with Glutamine containing 10% heat-inactivated FBS, 1% Penicillin/Streptomycin, Hygromycin (100 μg/ml) and G418 (100 μg/ml). Cells were grown in culture flasks at 37° C. in a 5% CO2-humidified incubator.
The cells were bathed in an extracellular solution containing 140 mM NaCl, 4 mM KCl, 2 mM CaCl2), 1 mM MgCl2, 5 mM Glucose, 10 mM HEPES; pH adjusted to 7.4 with NaOH; 295-305 mOsm. The internal solution contained 50 mM KCl, 10 mM NaCl, 60 mM KF, 20 mM EGTA, 10 mM HEPES; pH adjusted to 7.2 with KOH; 285 mOsm. All compounds were dissolved in DMSO at 30 mM. Compound stock solutions were freshly diluted with external solution to concentrations of 30 nM, 100 nM, 300 nM, 1 μM, 3 μM, 10 μM, 30 μM and 100 μM. The highest content of DMSO (0.3%) was present in 100 μM.
The voltage protocol (see Table B) was designed to simulate voltage changes during a cardiac action potential with a 300 ms depolarization to +20 mV (analogous to the plateau phase of the cardiac action potential), a repolarization for 300 ms to −50 mV (inducing a tail current) and a final step to the holding potential of −80 mV. The pulse frequency was 0.3 Hz. Control (compound-free) and compound pulse trains for each compound concentration applied contained 70 pulses.
Whole cell current recordings and compound application were enabled by means of an automated patch clamp platform Patchliner (Nanion). EPC 10 patch clamp amplifier (HEKA) along with Patchmaster software (HEKA Elektronik Dr. Schulze GmbH) was used for data acquisition. Data were sampled at 10 kHz without filtering. Increasing compound concentrations were applied consecutively to the same cell without washouts in between.
AUC and PEAK values were obtained with Patchmaster (HEKA Elektronik Dr. Schulze GmbH). To determine IC50 the last single pulse in the pulse train corresponding to a given compound concentration was used. Obtained AUC and PEAK values in the presence of compound were normalized to control values in the absence of compound. Using Origin (OridinLab), IC50 was derived from data fit to Hill equation: Icompound/Icontrol=(100−A)/(1+([compound]/IC50)nH)+A, where IC50 is the concentration at which current inhibition is half-maximal, [compound] is the applied compound concentration, A is the fraction of current that is not blocked and nH is the Hill coefficient.

SMILES | IC50 (Kv1.3 potassium channel) [µM] | IC50 (hERG channel) [µM]
Oc1cc(Cl)c(Cl)cc1[C@H](O)C1CCNCC1 (single isomer, unassigned) [Compound 7] | < 10 | > 30
CC(=O)N[C@H](c1cc(Cl)c(Cl)cc1O)C1CCNCC1 (single isomer, unassigned) [Compound 10] | < 10 | > 30
Cn1cc(C(=O)N2CCC([C@@H](N)c3cc(Cl)c(Cl)cc3O)CC2)ncc1=O [Compound 298, 5-[4-[(R)-amino(4,5-dichloro-2-hydroxyphenyl)methyl]piperidine-1-carbonyl]-1-methylpyrazin-2-one Trifluoroacetic Acid] | < 0.5 | < 30
Oc1cc(Cl)c(Cl)cc1[C@@H](O)C1CCNCC1 (single isomer, unassigned) [Compound 6] | < 10 | > 30
N[C@@H](c1cc(Cl)c(Cl)cc1O)C1CCN(C(=O)c2nnc[nH]2)CC1 [Compound 152, (R)-(4-(amino(4,5-dichloro-2-hydroxyphenyl)methyl)piperidin-1-yl)(1H-1,2,4-triazol-3-yl)methanone trifluoroacetic acid] | < 10 | > 30
N[C@@H](c1cc(Cl)c(Cl)cc1O)C1CCN(C(=O)c2cc(=O)[nH]cn2)CC1 [Compound 176, (R)-(4-(amino (4,5-dichloro-2-hydroxyphenyl)methyl)piperidin-1-yl)(6-hydroxy-pyrimidin-4-yl)methanone trifluoroacetic acid] | < 10 | > 30
Nc1cc(C(=O)N2CCC([C@@H](N)c3cc(Cl)c(Cl)cc3O)CC2)ccn1 [Compound 301, 2-[(R)-amino[1-(2-aminopyridine-4-carbonyl)piperidin-4-yl]methyl]-4,5-dichlorophenol trifluoroacetic acid] | < 0.5 | > 30
CNC(c1cc(Cl)c(Cl)cc1O)C1CCNCC1 (centres unmarked) [Compound 31, 4,5-dichloro-2-[(methylamino)(piperidin-4-yl)methyl]phenol Trifluoroacetic Acid] | < 10 | > 30
Cc1cc(O)c([C@H](N)C2CCN(S(=O)(=O)C3CCNC3)CC2)cc1Cl (stereo partly drawn) [Compound 236, 2-[(R)-amino[1-(pyrrolidine-3-sulfonyl)piperidin-4-yl]methyl]-4-chloro-5-methylphenol Trifluoroacetic Acid] | < 0.5 | > 30
Nc1cccc(N2CCC([C@@H](N)c3cc(Cl)c(Cl)cc3O)CC2)n1 [Compound 146, (R)-2-(amino(1-(6-aminopyridin-2-yl)piperidin-4-yl)methyl)-4,5-dichlorophenol Trifluoroacetic Acid] | < 10 | < 30
C[C@@H]1C[C@@H]([C@@H](N)c2cc(Cl)c(Cl)cc2O)CCN1C(=O)[C@H](O)CO [Compound 327, (2R)-1-[(2R,4S)-4-[(R)-amino(4,5-dichloro-2-hydroxyphenyl)methyl]-2-methylpiperidin-1-yl]-2,3-dihydroxypropan-1-one Trifluoroacetic Acid] | < 10 | > 30
N[C@@H](c1c(O)cc(Cl)c(Cl)c1F)C1CCN(C(=O)c2ccc(=O)[nH]c2)CC1 [Compound 257, 5-[4-[(R)-amino(3,4-dichloro-2-fluoro-6-hydroxyphenyl)methyl]piperidine-1-carbonyl]-1H-pyridin-2-one Trifluoroacetic Acid] | < 0.5 | > 30
Nc1ccc(N2CCC([C@@H](N)c3cc(Cl)c(Cl)cc3O)CC2)nc1 [Compound 147, (R)-2-(amino(1-(5-aminopyridin-2-yl)piperidin-4-yl)methyl)-4,5-dichlorophenol Trifluoroacetic Acid] | < 0.5 | < 30
Nc1nc(N2CCC([C@@H](N)c3cc(Cl)c(Cl)cc3O)CC2)no1 [Compound 183, 2-[(R)-amino[1-(5-amino-1,2,4-oxadiazol-3-yl)piperidin-4-yl]methyl]-4,5-dichlorophenol] | < 0.5 | < 30
Cc1cc(O)c([C@H](N)C2CCN(C(=O)c3c[nH]c(=O)cc3Cl)CC2)cc1Cl [Compound 245, 5-[4-[(R)-amino (5-chloro-2-hydroxy-4-methylphenyl)methyl]piperidine-1-carbonyl]-4-chloro-1H-pyridin-2-one trifluoroacetic acid] | < 0.5 | > 30
O=C([C@@H]1CCNC1)N1CCC(C(O)c2cc(Cl)c(Cl)cc2O)CC1 (stereo partly drawn) [Compound 101, 4,5-dichloro-2-[hydroxy([1-[(3R)-pyrrolidine-3-carbonyl]piperidin-4-yl])methyl]phenol] | < 0.5 | > 30
O=C([C@@H]1CCNC1)N1CCC([C@@H](O)c2c(O)ccc(Cl)c2Cl)CC1 (single isomer, unassigned) [Compound 123, Trifluoroacetic Acid] | < 0.5 | > 30
Cc1cc(O)c([C@H](N)C2CCN(C(=O)CO)CC2)cc1Cl [Compound 233, (R)-1-(4-(amino(5-chloro-2-hydroxy-4-methylphenyl)methyl)piperidin-1-yl)-2-hydroxyethan-1-one trifluoroacetic acid] | < 0.5 | > 30
NC(c1cc(Cl)c(Cl)cc1O)C1CCN(C2CCOCC2)CC1 (centres unmarked) [Compound 44, 2-(amino(1-(tetrahydro-2H-pyran-4-yl)piperidin-4-yl)methyl)-4,5-dichlorophenol] | < 10 | < 30
N[C@@H](c1cc(Cl)c(Cl)cc1O)C1CCN(S(=O)(=O)[C@@H]2CCNC2)CC1 (single isomer, unassigned; isomer 1) [Compound 112] | < 0.5 | > 30
CC1CN(C(=O)[C@H](O)CO)CCC1[C@@H](N)c1cc(Cl)c(Cl)cc1O (single isomer, unassigned; isomer 1) [Compound 331] | < 0.5 | > 30

More lines, main results first:

IC50 (Kv1.3 potassium channel) [µM] | SMILES | IC50 (hERG channel) [µM]
< 0.5 | N#CC1(C(=O)N2CCC(C(N)c3cc(Cl)c(Cl)cc3O)CC2)CC1 (centres unmarked) [Compound 48, 1-(4-(amino(4,5-dichloro-2-hydroxyphenyl)methyl)piperidine-1-carbonyl)cyclopropanecarbonitrile Trifluoroacetic Acid] | < 30
< 0.5 | N[C@@H](c1cc(Cl)c(Cl)cc1O)C1CCN(C(=O)C2CNC2)CC1 [Compound 83, 2-[(R)-amino[1-(azetidine-3-carbonyl)piperidin-4-yl]methyl]-4,5-dichlorophenol Trifluoroacetic Acid] | > 30
< 10 | CC(C)C(N)C(=O)N1CCC([C@@H](N)c2cc(Cl)c(Cl)cc2O)CC1 (stereo partly drawn) [Compound 156, 2-amino-1-[4-[(R)-amino(4,5-dichloro-2-hydroxyphenyl)methyl]piperidin-1-yl]-3-methylbutan-1-one trifluoroacetic acid] | > 30
< 10 | N[C@@H](c1cc(Cl)c(Cl)cc1O)C1CCN(C(=O)C2(O)CC2)CC1 [Compound 140, 2-[(R)-amino[1-(1-hydroxycyclo-propanecarbonyl)piperidin-4-yl]methyl]-4,5-dichlorophenol trifluoroacetic acid] | < 30
< 0.5 | N[C@@H](c1cc(Cl)c(Cl)cc1O)C1CCN(C(=O)[C@H]2CCC(=O)NC2)CC1 (single isomer, unassigned; isomer 1) [Compound 221] | > 30
< 10 | CC(=O)N1CC(C(=O)N2CCC([C@@H](N)c3cc(Cl)c(Cl)cc3O)CC2)C1 [Compound 200, 1-(3-[4-[(R)-amino(4,5-dichloro-2-hydroxyphenyl)methyl]piperidine-1-carbonyl]azetidin-1-yl)ethan-1-one] | > 30
< 0.5 | N[C@@H](c1cc(Cl)c(Cl)cc1O)C1CCN(C(=O)[C@H]2CNCCO2)CC1 [Compound 97, (4-((R)-amino(4,5-dichloro-2-hydroxyphenyl)methyl)piperidin-1-yl)((R)-morpholin-2-yl)methanone trifluoroacetic acid] | > 30
< 0.5 | N[C@@H](c1cc(Cl)c(Cl)cc1O)C1CCN(C(=O)C2CNC(=O)C2)CC1 (stereo partly drawn) [Compound 223, 4-[4-[(R)-amino(4,5-dichloro-2-hydroxyphenyl)methyl]piperidine-1-carbonyl] pyrrolidin-2-one trifluoroacetic acid] | > 30
< 0.5 | CC1(C(=O)N2CCC([C@@H](N)c3cc(Cl)c(Cl)cc3O)CC2)CNC1 [Compound 109, (R)-(4-(amino(4,5-dichloro-2-hydroxyphenyl)methyl)piperidin-1-yl)(3-methylazetidin-3-yl)methanone] | > 30
< 10 | N[C@@H](c1cc(Cl)c(Cl)cc1O)C1CCN(C(=O)[C@@H]2COCCO2)CC1 [Compound 170, 2-[(R)-amino([1-[(2S)-1,4-dioxane-2-carbonyl]piperidin-4-yl])methyl]-4,5-dichlorophenol trifluoroacetic acid] | < 30
< 0.5 | Cn1cc(C(=O)N2CCC([C@@H](N)c3cc(Cl)c(Cl)cc3O)CC2)cn1 [Compound 203, (R)-(4-(amino(4,5-dichloro-2-hydroxyphenyl)methyl)piperidin-1-yl) (1-methyl-1H-pyrazol-4-yl)methanone] | < 30
< 0.5 | N[C@@H](c1cc(Cl)c(Cl)cc1O)C1CCN(C(=O)C2(O)CNC2)CC1 [Compound 219, 3-[4-[(R)-amino(4,5-dichloro-2-hydroxyphenyl)methyl]piperidine-1-carbonyl]azetidin-3-ol Trifluoroacetic Acid] | > 30
< 10 | N[C@@H](c1cc(Cl)c(Cl)cc1O)C1CCN(C(=O)C2COCCN2)CC1 (stereo partly drawn) [Compound 144, 2-[(R)-amino[1-(morpholine-3-carbonyl)piperidin-4-yl]methyl]-4,5-dichlorophenol trifluoroacetic acid] | > 30
